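96-well plates; 48 h exposure; 5 concentrations. Endpoints by linear interpolation between flanking doses. Not reached: highest tested concentration assigned. GI50 marks 50% less growth. At the TGI there is no net growth.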

The first assay deals with SF-268 CNS. Description: NCI-60 cell line screen, 48 h.
In the case of `Nc1nccc2c1ccn2-c1ccc(NC(=O)c2ccc(N3CCOCC3)c(C(F)(F)F)c2)cc1`, the GI50 is 0.879 µM and the TGI is 15.1 µM.

For the compound `Cc1[nH]c2ccccc2c1-c1cc(-c2cc(-c3c(C)[nH]c4ccccc34)on2)no1`, the TGI was more than 100 µM.

Regarding `Cn1cnc([N+](=O)[O-])c1S(=O)(=O)Oc1ccccc1`, the GI50 was 16.5 µM and the TGI was determined as 48.2 µM.

For the compound `COc1cc(C2c3cc4c(cc3C(O)C(CO)C2CO)OCO4)cc(OC)c1OC` (centres undefined), the GI50 was 3.32 µM and the TGI was more than 100 µM.

Take `CCCNC(=S)/N=C/c1c(O)c2ccccc2[nH]c1=O`: the TGI is more than 100 µM.

Take `COC12C=C/C(=C(/C(=O)OCc3ccncc3)C(=O)CCCCCCCCC3(OC)C=C/C(=C(/C(=O)OCc4ccncc4)C(=O)CCCCCCCC1)O3)O2`: the GI50 is 1.04 µM and the TGI was found to be 3.28 µM.

For `CCOc1ccc2nc(S/C(=C/C=C(C#N)C#N)c3ccc(C)cc3)sc2c1`, the GI50 is 30 µM and the TGI is more than 100 µM.

As for `Cc1csc(Nc2nc(-c3cccc(Br)c3)nc(C(Cl)(Cl)Cl)n2)n1`, the GI50 is 4.65 µM and the TGI is more than 100 µM.

Compound `C1CSCCSCCS1` registered a TGI of more than 100 µM.

As to `CCN(CC)CCOc1ccc(/C=C2\CC3C4CC=C5C[C@@H](O)CC[C@]5(C)C4CC[C@]3(C)C2=O)cc1OC` (some centres undefined), the GI50 is 7.39 µM and the TGI is more than 57.3 µM.

Regarding `O=c1c2ccccc2sc2cccc(NCCCN3CCN(CCCNc4cccc5sc6ccccc6c(=O)c45)CC3)c12`, the TGI is more than 100 µM.

In the case of `Cc1cn2c(/C=C3\C(=O)Nc4ccc(O)cc43)c(-c3ccc(Cl)cc3)nc2s1`, the GI50 is 15.2 µM and the TGI was determined as 54.5 µM.

In the case of `CC1=CC(=O)[C@@H](O)[C@]2(C)[C@H]3[C@@]4(O)OC[C@]35[C@H]([C@@H](C)[C@H]4O)[C@@H](O)C(=O)O[C@@H]5C[C@@H]12`, the TGI was determined as 0.778 µM.

`Nc1nc(N)c(N=Nc2ccc([As](=O)(O)O)cc2)c(=O)[nH]1` yielded a TGI of more than 100 µM.

In the case of `CCOC(=O)C(=Cc1cccc(Cl)c1)C(=O)OCC`, the GI50 was 2.54 µM and the TGI turned out to be 7.96 µM.

On to `C=CC(=O)N1CCC(C2CCNc3c(C(N)=O)c(-c4ccc(Oc5ccccc5)cc4)nn32)CC1` (centres undefined), for which the GI50 was 6.98 µM and the TGI was 45 µM.

Consider `O=c1cc2oc3cc(O)c(O)cc3c(-c3ccccc3O)c-2cc1O`, for which the GI50 is 5.53 µM and the TGI is more than 100 µM.

With `COc1ccccc1N1CCN(CCCn2c(=O)c3c(OC)nc(C)cc3c(=O)n2-c2ccccc2)CC1`, the GI50 is more than 100 µM and the TGI was more than 100 µM.

In turn, `N#Cc1c(-c2ccc(F)cc2)c(-c2ccc(F)cc2)nn(CCO)c1=O` displayed a TGI of more than 100 µM.

For the next assay, the system named is MALME-3M melanoma. Kind of assay: NCI-60 cell line screen, 48 h.
With `Nc1nccc2c1ccn2-c1ccc(NC(=O)c2ccc(N3CCOCC3)c(C(F)(F)F)c2)cc1`, the GI50 was 1.58 µM and the TGI turned out to be 6.71 µM.

Turning to `Cc1[nH]c2ccccc2c1-c1cc(-c2cc(-c3c(C)[nH]c4ccccc34)on2)no1`, the TGI was more than 100 µM.

On to `Cn1cnc([N+](=O)[O-])c1S(=O)(=O)Oc1ccccc1`, for which the GI50 is 2.14 µM and the TGI is 4.32 µM.

As for `CCOc1ccc2nc(S/C(=C/C=C(C#N)C#N)c3ccc(C)cc3)sc2c1`, the GI50 is 33 µM and the TGI was more than 100 µM.

Consider `Cc1csc(Nc2nc(-c3cccc(Br)c3)nc(C(Cl)(Cl)Cl)n2)n1`, for which the GI50 is more than 100 µM and the TGI is more than 100 µM.

For the compound `CCN(CC)CCOc1ccc(/C=C2\CC3C4CC=C5C[C@@H](O)CC[C@]5(C)C4CC[C@]3(C)C2=O)cc1OC` (some centres undefined), the GI50 was 2.01 µM and the TGI turned out to be 12.3 µM.

Take `O=c1c2ccccc2sc2cccc(NCCCN3CCN(CCCNc4cccc5sc6ccccc6c(=O)c45)CC3)c12`: the TGI was more than 100 µM.

Take `Cc1cn2c(/C=C3\C(=O)Nc4ccc(O)cc43)c(-c3ccc(Cl)cc3)nc2s1`: the GI50 was 14.3 µM and the TGI amounted to 42 µM.

Turning to `CC1=CC(=O)[C@@H](O)[C@]2(C)[C@H]3[C@@]4(O)OC[C@]35[C@H]([C@@H](C)[C@H]4O)[C@@H](O)C(=O)O[C@@H]5C[C@@H]12`, the TGI is 0.445 µM.

For `Nc1nc(N)c(N=Nc2ccc([As](=O)(O)O)cc2)c(=O)[nH]1`, the TGI was more than 100 µM.

For `C=CC(=O)N1CCC(C2CCNc3c(C(N)=O)c(-c4ccc(Oc5ccccc5)cc4)nn32)CC1` (centres undefined), the GI50 was 14 µM and the TGI amounted to 34.6 µM.

Turning to `O=c1cc2oc3cc(O)c(O)cc3c(-c3ccccc3O)c-2cc1O`, the GI50 is 53 µM and the TGI is more than 100 µM.

For the compound `COc1ccccc1N1CCN(CCCn2c(=O)c3c(OC)nc(C)cc3c(=O)n2-c2ccccc2)CC1`, the GI50 is more than 100 µM and the TGI was more than 100 µM.

`N#Cc1c(-c2ccc(F)cc2)c(-c2ccc(F)cc2)nn(CCO)c1=O` showed a TGI of more than 100 µM.

For another assay, the system named is SK-MEL-5 melanoma. Kind of assay: NCI-60 cell line screen, 48 h.
On to `Nc1nccc2c1ccn2-c1ccc(NC(=O)c2ccc(N3CCOCC3)c(C(F)(F)F)c2)cc1`, for which the GI50 was 0.944 µM and the TGI came out at 2.28 µM.

For the compound `Cc1[nH]c2ccccc2c1-c1cc(-c2cc(-c3c(C)[nH]c4ccccc34)on2)no1`, the TGI is more than 100 µM.

For the compound `Cn1cnc([N+](=O)[O-])c1S(=O)(=O)Oc1ccccc1`, the GI50 is 17.3 µM and the TGI is 34.2 µM.

Consider `COc1cc(C2c3cc4c(cc3C(O)C(CO)C2CO)OCO4)cc(OC)c1OC` (centres undefined), for which the GI50 was 0.636 µM and the TGI is more than 72 µM.

Turning to `CCCNC(=S)/N=C/c1c(O)c2ccccc2[nH]c1=O`, the TGI is more than 100 µM.

In the case of `COC12C=C/C(=C(/C(=O)OCc3ccncc3)C(=O)CCCCCCCCC3(OC)C=C/C(=C(/C(=O)OCc4ccncc4)C(=O)CCCCCCCC1)O3)O2`, the GI50 is 0.247 µM and the TGI was 0.867 µM.

Turning to `CCOc1ccc2nc(S/C(=C/C=C(C#N)C#N)c3ccc(C)cc3)sc2c1`, the GI50 is 22.1 µM and the TGI is 57.4 µM.

Take `Cc1csc(Nc2nc(-c3cccc(Br)c3)nc(C(Cl)(Cl)Cl)n2)n1`: the GI50 is more than 100 µM and the TGI was more than 100 µM.

For `C1CSCCSCCS1`, the TGI is more than 100 µM.

(Values after PubChem BioAssay (NCI).)
